Experimental findings from patent US5710150A, “Benzazepine derivative, pharmaceutical composition thereof, and intermediate thereof” (Yamanouchi Pharmaceutical Co., Ltd., priority 1993, dated 1998) are described below.

Assay [1] deals with V1. Description: V1 antagonism in conscious rats (oral administration), AVP-induced diastolic blood pressure increase. It is filed as in vivo, male Wister rats. As to conditions: 1 mg/kg oral, 30 minutes to 6 hours after administration, AVP 30 mU/kg i.v.
Assay [2] has as its target arginine vasopressin V2 receptor (Oryctolagus cuniculus, UniProt G1TA00). Description: V2 receptor binding assay ([3H]-Arg-vasopressin, rabbit renal medulla membrane). As to conditions: for antagonism on V2 receptor (in words): compared with OPC-31260 and OPC-21268; for Binding activity on arginine vasopressin V2 receptor (pKi): rabbit renal medulla membrane, [3H]-Arg-vasopressin 2 nM.

The target of assay [3] is T1, arginine vasopressin V1 receptor (Rattus norvegicus, UniProt P30560).
T1 construct: A rat liver membrane sample was prepared; from tissue; host or cells: rat liver membranes
Description: V1 receptor binding assay ([3H]-Arg-vasopressin, rat liver membrane). As to conditions: for antagonism on V1 receptor (in words): compared with OPC-31260 and OPC-21268; for V1 selectivity (in words): V1 versus V2 receptor binding; for V1 receptor antagonism compared with OPC-21268 (in words): versus OPC-21268. How it is done: (1) V1 receptor binding assay
A rat liver membrane sample was prepared in accordance with the method of Nakamura et al. (J. Biol. Chem., 258, 9283 (1983)), and [^3 H]-Arg-vasopressin (2 nM, specific activity=75.8 Ci/mmol), 70 μg of the membrane sample and each drug to be tested (10^-8 to 10^-4 M) were incubated at 30° C. for 30 minutes in 250 μl of 100 mM Tris-HCl buffer (pH=8.0) containing 5 mM of magnesium chloride, 1 mM of ethylenediaminetetraacetic acid (EDTA) and 0.1% of bovine serum albumin (BSA). Thereafter, the incubation solution was sucked off using a cell harvester and free ligand and excess buffer were removed by passing the reaction mixture through a glass filter (GF/B), thereby trapping receptor-bound labeled ligand on the glass filter. The glass filter was taken out, thoroughly dried and then mixed with a liquid scintillation cocktail, and the amount of the membrane-bound [^3 H]-vasopressin was measured using a liquid scintillation counter to calculate the inhibition ratio by the following formula. [formula] C1 : amount of [^3 H]-vasopressin bound to the membrane in the coexistence of known amount of each drug to be tested and [^3 H]-vasopressin
C0 : amount of [^3 H]-vasopressin bound to the membrane when the drug to be tested was not added
B1 : amount of [^3 H]-vasopressin bound to the membrane in the presence of excess vasopressin (10^-6 M)
[formula] [L]: concentration of radioactive ligand KD: dissociation constant calculated from Scatchard plot
Negative logarithm of the thus calculated Ki value was used as pKi value.

The mark [4] stands for this setting: rat liver membrane, [3H]-Arg-vasopressin 2 nM, 30° C., 30 minutes, pH 8.0, read-out: Binding activity on arginine vasopressin V1 receptor (pKi) (converted).

Each structure is given as a SMILES string. Counter-ions that a name gives are not always drawn. Like-named read-outs stand apart in the source and are kept apart here. Where only a bound is given, the exact number is not on record here.

Chain of arginine vasopressin V2 receptor (G1TA00 78-446): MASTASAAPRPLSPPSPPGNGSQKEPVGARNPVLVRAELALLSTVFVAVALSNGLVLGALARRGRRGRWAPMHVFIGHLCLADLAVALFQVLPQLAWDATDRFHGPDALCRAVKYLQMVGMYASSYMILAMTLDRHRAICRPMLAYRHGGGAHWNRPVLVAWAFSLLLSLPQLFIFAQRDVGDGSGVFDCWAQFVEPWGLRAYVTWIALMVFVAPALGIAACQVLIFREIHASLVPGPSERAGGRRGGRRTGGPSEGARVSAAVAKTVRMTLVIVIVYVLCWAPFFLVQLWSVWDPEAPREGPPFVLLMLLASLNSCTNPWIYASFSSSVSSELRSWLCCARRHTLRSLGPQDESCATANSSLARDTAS
T1 sequence (P30560 whole entry): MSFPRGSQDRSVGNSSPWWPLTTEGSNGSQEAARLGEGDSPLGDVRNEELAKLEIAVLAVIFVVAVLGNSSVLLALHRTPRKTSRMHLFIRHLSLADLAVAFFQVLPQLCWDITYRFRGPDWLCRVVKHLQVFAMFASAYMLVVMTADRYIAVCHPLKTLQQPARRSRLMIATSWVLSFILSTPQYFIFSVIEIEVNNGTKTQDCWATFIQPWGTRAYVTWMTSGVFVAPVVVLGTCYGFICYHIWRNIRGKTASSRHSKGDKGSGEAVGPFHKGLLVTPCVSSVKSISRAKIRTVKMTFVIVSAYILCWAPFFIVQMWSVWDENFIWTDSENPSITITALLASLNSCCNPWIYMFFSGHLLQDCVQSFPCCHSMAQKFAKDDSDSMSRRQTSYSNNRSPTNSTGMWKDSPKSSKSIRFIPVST

Regarding `CN(C)C1CCN(C(=O)/C=C2/c3ccccc3N(C(=O)c3ccc(NC(=O)c4ccccc4-c4ccccc4)cc3)CCC2(F)F)CC1.Cl` [Example 13, (Z)-4'-[[4,4-difluoro-5-[[(4-dimethylaminopiperidino)carbonyl]methylene]-2,3,4,5-tetrahydro-1H-1-benzazepin-1-yl]carbonyl]-2-phenylbenzanilide hydrochloride], the “Pressure increment by AVP (before compound = 100%)” value in assay [1] is recorded as ≤ 50%. Besides, in assay [2], the “antagonism on V2 receptor (in words)” value is “excellent antagonisms on both V1 and V2 receptors”; the “Binding activity on arginine vasopressin V2 receptor (pKi)” value (“Binding activity” below) was determined as 9.58. In addition, the “antagonism on V1 receptor (in words)” value in assay [3] is “excellent antagonisms on both V1 and V2 receptors”. In assay [3] (setting [4]), the Ki is 0.0794 nM.

In the case of `CN1CCCN(C(=O)/C=C2/c3ccccc3N(C(=O)c3ccc(NC(=O)c4ccccc4-c4ccccc4)cc3)CCC2(F)F)CC1.Cl` [Example 24, (Z)-4'-[[4,4-difluoro-5-[[(4-methylhexahydro-1,4-diazepin-1-yl)carbonyl]methylene]-2,3,4,5-tetrahydro-1H-1-benzazepin-1-yl]carbonyl]-2-phenylbenzanilide hydrochloride], in assay [1], the “Pressure increment by AVP (before compound = 100%)” value was ≤ 50%. In assay [2], the “antagonism on V2 receptor (in words)” value was “excellent antagonisms on both V1 and V2 receptors”; the “Binding activity” value came to 9.26. For the same molecule, in assay [3], the “antagonism on V1 receptor (in words)” value was “excellent antagonisms on both V1 and V2 receptors”. In addition, in assay [3] (setting [4]), the Ki is 0.0316 nM.

With `CN(C)C1CCN(C(=O)/C=C2/c3ccccc3N(C(=O)c3ccc(NC(=O)c4cccc5ccccc45)cc3)CCC2(F)F)CC1` [Example 109, (Z)-N-[4'-[[4,4-difluoro-5-[[(4-dimethylaminopiperidino)carbonyl]methylene]-2,3,4,5-tetrahydro-1H-1-benzazepin-1-yl]carbonyl]phenylnaphthalene-1-carboxyamide hydrochloride], the “Binding activity” value in assay [2] stood at 8.06. For the same molecule, the Ki in assay [3] (setting [4]) was 3.98 nM.

For `Cc1ccoc1C(=O)Nc1ccc(C(=O)N2CCC(F)(F)/C(=C\C(=O)N3CCC(N(C)C)CC3)c3ccccc32)cc1` [Example 113, (Z)-N-[4-[[4,4-difluoro-5-[[(4-dimethylaminopiperidino)carbonyl]methylene]-2,3,4,5-tetrahydro-1H-1-benzazepin-1-yl]carbonyl]phenyl]-3-methyl-2-furancarboxyamide hydrochloride], the “Binding activity” value in assay [2] was determined as 7.50. Moreover, in assay [3], the Ki was 0.263 nM, the “V1 selectivity (in words)” value is recorded as “excellent in V1 selectivity” and the “V1 receptor antagonism compared with OPC-21268 (in words)” value was “markedly stronger V1 receptor antagonism than that of OPC-21268”.

Turning to `O=C(/C=C1/c2ccccc2N(C(=O)c2ccc(NC(=O)c3ccccc3-c3ccccc3)cc2)CCC1(F)F)NCc1ccccc1` [Example 127, (Z)-4'-[[4,4-difluoro-5-[(N-benzylcarbamoyl)methylene]-2,3,4,5-tetrahydro-1H-1-benzazepin-1-yl]carbonyl]-2-phenylbenzanilide], the “Binding activity” value in assay [2] was found to be 8.19. Moreover, in assay [3] (setting [4]), the Ki is 1.74 nM.

In the case of `CCc1nccn1-c1ccccc1C(=O)Nc1ccc(C(=O)N2CCC(F)(F)/C(=C\C(N)=O)c3ccccc32)cc1` [Example 103, (Z)-4'-[(5-carbamoylmethylene-4,4-difluoro-2,3,4,5-tetrahydro-1H-1-benzazepin-1-yl]carbonyl]-2-(2-ethyl-1H-imidazol-1-yl)benzanilide], in assay [2], the “Binding activity” value is recorded as 6.35. Besides, in assay [3], the “V1 selectivity (in words)” value is given as “excellent in V1 selectivity” and the “V1 receptor antagonism compared with OPC-21268 (in words)” value was “markedly stronger V1 receptor antagonism than that of OPC-21268”. For the same molecule, the Ki in assay [3] (setting [4]) was 2 nM.

For the molecule `Cl.O=C(Nc1ccc(C(=O)N2CCC(F)(F)/C(=C\CN3CCCC3)c3ccccc32)cc1)c1ccccc1-c1ccccc1` [Example 81, (Z)-4'-[[4,4-difluoro-5-[2-(1-pyrrolidinyl)ethylidene]-2,3,4,5-tetrahydro-1H-1-benzazepin-1-yl]carbonyl]-2-phenylbenzanilide hydrochloride], the “Binding activity” value in assay [2] is 8.64. Moreover, in assay [3] (setting [4]), the Ki is 0.724 nM.

With `CN(C)C(=O)/C=C1/c2ccccc2N(C(=O)c2ccc(NC(=O)c3ccccc3-c3ccccc3)cc2)CCC1(F)F` [Example 129, (Z)-4'-[[5-(N,N-dimethylcarbamoylmethylene)-4,4-difluoro-2,3,4,5-tetrahydro1H-1-benzazepin-1-yl]carbonyl]-2-phenylbenzanilide], in assay [2], the “Binding activity” value worked out at 8.24. For the same molecule, the Ki in assay [3] (setting [4]) was 0.479 nM.

Turning to `CC(C)NC(=O)/C=C1/c2ccccc2N(C(=O)c2ccc(NC(=O)c3ccccc3-c3ccccc3)cc2)CCC1(F)F` [Example 125, (Z)-4'-[[4,4-difluoro-5-(N-isopropylcarbamoylmethylene)-2,3,4,5-tetrahydro-1H-1-benzazepin-1-yl]carbonyl]-2-phenylbenzanilide], in assay [2], the “Binding activity” value amounted to 8.08. The Ki in assay [3] (setting [4]) was 0.282 nM.

As to `O=C(/C=C1/c2ccccc2N(C(=O)c2ccc(NC(=O)c3ccccc3-c3ccccc3)cc2)CCC1(F)F)NCc1ccccn1` [Example 14, (Z)-4'-[[4,4-difluoro-5-[N-(2-pyridylmethyl)carbonylmethylene]-2,3,4,5-tetrahydro-1H-1-benzazepin-1-yl]carbonyl]-2-phenylbenzanilide hydrochloride], the “Binding activity” value in assay [2] was found to be 9.39. Also, the Ki in assay [3] (setting [4]) is 1.23 nM.

Take `Cc1ccc(-c2ccccc2C(=O)Nc2ccc(C(=O)N3CCC(F)(F)/C(=C\C#N)c4ccccc43)cc2)cc1` [Compound 22 (a), 4'-[(5-cyanomethylene-4,4-difluoro-2,3,4,5-tetrahydro-1H-1-benzazepin-1-yl)carbonyl]-2-(4methylphenyl)benzanilide]: the “Binding activity” value in assay [2] is 8.36. Also, the Ki in assay [3] was 9.55 nM.

Take `O=C(Nc1ccc(C(=O)N2CCC(F)(F)/C(=C\C(=O)N3CCCNCC3)c3ccccc32)cc1)c1ccccc1-c1ccccc1` [Example 28, (Z)-4'-[[[5-[(hexahydro-1,4-diazepin-1-yl)carbonyl]methylene]-4,4-difluoro-2,3,4,5-tetrahydro-1H-1-benzazepin-1-yl]carbonyl]-2-phenylbenzanilide hydrochloride]: in assay [2], the “antagonism on V2 receptor (in words)” value was “excellent antagonisms on both V1 and V2 receptors”; the “Binding activity” value is on record as 9.37. Moreover, in assay [3], the “antagonism on V1 receptor (in words)” value was “excellent antagonisms on both V1 and V2 receptors”. Moreover, in assay [3] (setting [4]), the Ki was 0.0832 nM.

For the molecule `O=C(Nc1ccc(C(=O)N2CCC(F)(F)/C(=C\C(=O)N3CCCC3)c3ccccc32)cc1)c1ccccc1-c1ccccc1` [Example 131], the “Binding activity” value in assay [2] is 7.99. Also, in assay [3] (setting [4]), the Ki is 0.708 nM.

Take `NC(=O)/C=C1/c2ccccc2N(C(=O)c2ccc(NC(=O)c3ccccc3-c3ccccc3)cc2)CCC1(F)F` [Example 121, (Z)-4'-[(5-carbamoylmethylene-4,4-difluoro-2,3,4,5-tetrahydro-1H-1-benzazepin-1-yl]carbonyl]-2-phenylbenzanilide]: the “Binding activity” value in assay [2] turned out to be 8.59. The Ki in assay [3] (setting [4]) is 0.295 nM.

As for `Cl.O=C(/C=C1/c2ccccc2N(C(=O)c2ccc(NC(=O)c3ccccc3-c3ccccc3)cc2)CCC1(F)F)NC1CN2CCC1CC2` (racemic) [Example 85, (±)-(Z)-4'-[[4,4-difluoro-5-[[N-(3-quinuclidinyl)carbamoyl]methylene]-2,3,4,5-tetrahydro-1H-1-benzazepin-1-yl]carbonyl]-2-phenylbenzanilide hydrochloride], in assay [2], the “antagonism on V2 receptor (in words)” value was “excellent antagonisms on both V1 and V2 receptors”; the “Binding activity” value came to 9.97. Besides, the “antagonism on V1 receptor (in words)” value in assay [3] was “excellent antagonisms on both V1 and V2 receptors”. The Ki in assay [3] (setting [4]) was 0.0955 nM.

With `CN(C)CC/C=C1\c2ccccc2N(C(=O)c2ccc(NC(=O)c3ccccc3-c3ccccc3)cc2)CCC1(F)F.Cl` [Example 82, (E)-4'-[[4,4-difluoro-5-(3-dimethylaminopropylidene)-2,3,4,5-tetrahydro-1H-1-benzazepin-1-yl]carbonyl]-2-phenylbenzanilide hydrochloride], the “Binding activity” value in assay [2] was 8.13. Further, in assay [3] (setting [4]), the Ki is 2.63 nM.

Consider `O=C(Nc1ccc(C(=O)N2CCC(F)(F)/C(=C\C(=O)N3CCOCC3)c3ccccc32)cc1)c1ccccc1-c1ccccc1` [Example 133, (Z)-4'-[(4,4-difluoro-5-morpholinocarbonylmethylene-4,4-difluoro-2,3,4,5-tetrahydro-1H-1-benzazepin-1-yl)carbonyl]-2-phenylbenzanilide], for which, in assay [2], the “Binding activity” value came to 8.28. Besides, the Ki in assay [3] (setting [4]) was 0.363 nM.
